# Measurements as given in US20240287048A1, “SUBSTITUTED ACYL SULFONAMIDES FOR TREATING CANCER” (The Broad Institute, Inc., priority 2020, published 2024).
# Tests used:
# [1] = tested on: Salmonella tester strain TA1535; experiment: Bacterial reverse gene mutation test Ames MPF Penta I, TA1535; assay type: cell-based
# Description: (§1) The employed commercial assay Ames MPF Penta I comprises the histidine auxotrophic Salmonella tester strains TA98, TA100, TA1535, TA1537 and two tryptophan auxotrophic tester strains E. coli wp2 (E. coli wp2 [pKM101] and E. coli wp2 uvrA, combined exposure). These strains meet the requirements of the OECD guideline 471 for testing chemicals.
# (§2) Bacterial strains were exposed to various concentrations of the test compounds in a histidine (His) or tryptophane (Trp) deficient medium. As recommended by ICH S2(R1) guideline, the test was conducted in two assay conditions, with and without addition of microsomal enzymes (S9 mix), taking the potential formation of DNA reactive metabolites via xenobiotic biotransformation into account.
# (§3) The potential of the test compound to induce gene mutations is assessed by comparing the control with the test compounds treated bacterial cultures.
# [2] = tested on: ESR1 transcription in MVLN cells; experiment: Repression of ESR1 transcription, MVLN luciferase reporter assay; assay type: cell-based; conditions: Homo sapiens, luciferase signal after 24 h, read-out: MVLN reporter assay, IC50[M] (arithmetic mean)
# How it was run: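 MVLN cells stably carry an ER-responsive vitellogenin A2 element driving luciferase. After 24 h of compound treatment, luciferase was read in lysate as the measure of ERα transcription. Alamar Blue fluorescence (530/590 nm, 2 h) was read first to control for cell loss; samples were run in duplicate.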
# [3] = target: T1, KAT6B (Homo sapiens, UniProt Q8WYB5); experiment: Kat6b activity assay (TR-FRET, acetylation of biotinylated histone H4 peptide); assay type: biochemical; conditions: recombinant human GST-tagged Kat6b (431-end), 30 mins at 22° C., read-out: KAT6B activity assay IC50 [mol/l] (arithmetic mean)
# T1 construct: fused on or other part: N-terminal GST tag
# Description: Kat6b inhibitory activities of the compounds described in the present invention were quantified using a Fluorescence Resonance Energy Transfer (TR-FRET) assay which measures acetylation of a synthetic, biotinylated Histone-H4-derived peptide by the enzyme.
# Recombinant human GST-tagged Kat6b protein (431-end, N-terminal GST-tag), purified from Baculovirus-infected insect cells (Sf9), was purchased from SignalChem (#K315-381BG). Histone H4 peptide (amino acids 1-24, […]-VLRD-K(Btn)-amide), which was used as substrate, was synthesized by Biosyntan GmbH, Berlin, Germany. Acetyl Coenzyme A was purchased from Sigma-Aldrich (#A-2056).
# Kat6b was incubated for 30 mins at 22° C. in the presence of different concentrations of test substances (0 μM, and within the range 0.01-20 μM) in assay buffer [25 mM Tris/HCl pH 8, 1 mM EGTA, 2.5 mM Glutathion, 0.02% Chicken Albumin, 0.05% Pluronic F127, 25 mM NaCl, 500 nM H4 peptide and 600 nM Acetyl Coenzyme A].
# The reaction was stopped by addition of Detection Solution (25 mM HEPES pH 7.5, 0.1% BSA, 22 nM SAXL665 (Cisbio #610SAXLE), 100 μM Anacardic Acid (Enzo #ALX-270-381), 1 nM Anti-Histone H4 (ACETYL K8) Antibody (ABCAM #AB15823), 0.5 nM Anti-Rabbit IgG Eu (Perkin Elmer #AD0083).
# The fluorescence emission at 620 nm and 665 nm after excitation at 330-350 nm was measured in a TR-FRET measuring instrument, for instance a Rubystar or a Pherastar (both from BMG Lab Technologies, Offenburg, Germany) or a Viewlux (Perkin-Elmer). The ratio of the emission at 665 nm and at […] was used as indicator of the amount of acetylated peptide.
# The resulting data (ratio) were normalized, taking 0% inhibition as the mean value of control measurements where all reagents were included. In this case 50 nl DMSO were used instead of compounds. […] IC50 values were determined by regression analysis based on a 4 parameter equation (minimum, maximum, ICM, Hill; Y=Max+(Min−Max)/(1+(X/ICso) Hill) using the Screener Software (Genedata).
# [4] = tested on: Salmonella tester strain TA1537; experiment: Bacterial reverse gene mutation test Ames MPF Penta I, TA1537; assay type: cell-based
# Description: as §1, §2, §3
# [5] = tested on: Salmonella tester strain TA98; experiment: Bacterial reverse gene mutation test Ames MPF Penta I, TA98; assay type: cell-based
# Description: as §1, §2, §3
# [6] = tested on: LCLC-97TM1 cells; experiment: Proliferation assay in LCLC-97TM1 cells; assay type: cell-based; conditions: Homo sapiens, 144 h, Alamar Blue, read-out: LCLC97TM1 proliferation assay, EC50[M] (arithmetic mean)
# How it was run: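 LCLC-97TM1 large-cell lung carcinoma cells were seeded at 6000 per well in RPMI 1640 with 2.5% FBS and exposed to compound for 144 h at 37 °C, 5% CO2, in triplicate. Viability was read by Alamar Blue fluorescence at 590 nm after 2 h.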
# [7] = tested on: E. coli wp2 (E. coli wp2 [pKM101] and E. coli wp2 uvrA, combined exposure); experiment: Bacterial reverse gene mutation test Ames MPF Penta I, E. coli wp2; assay type: cell-based
# Description: as §1, §2, §3
# T1 sequence (Q8WYB5 723-2073 limits assumed): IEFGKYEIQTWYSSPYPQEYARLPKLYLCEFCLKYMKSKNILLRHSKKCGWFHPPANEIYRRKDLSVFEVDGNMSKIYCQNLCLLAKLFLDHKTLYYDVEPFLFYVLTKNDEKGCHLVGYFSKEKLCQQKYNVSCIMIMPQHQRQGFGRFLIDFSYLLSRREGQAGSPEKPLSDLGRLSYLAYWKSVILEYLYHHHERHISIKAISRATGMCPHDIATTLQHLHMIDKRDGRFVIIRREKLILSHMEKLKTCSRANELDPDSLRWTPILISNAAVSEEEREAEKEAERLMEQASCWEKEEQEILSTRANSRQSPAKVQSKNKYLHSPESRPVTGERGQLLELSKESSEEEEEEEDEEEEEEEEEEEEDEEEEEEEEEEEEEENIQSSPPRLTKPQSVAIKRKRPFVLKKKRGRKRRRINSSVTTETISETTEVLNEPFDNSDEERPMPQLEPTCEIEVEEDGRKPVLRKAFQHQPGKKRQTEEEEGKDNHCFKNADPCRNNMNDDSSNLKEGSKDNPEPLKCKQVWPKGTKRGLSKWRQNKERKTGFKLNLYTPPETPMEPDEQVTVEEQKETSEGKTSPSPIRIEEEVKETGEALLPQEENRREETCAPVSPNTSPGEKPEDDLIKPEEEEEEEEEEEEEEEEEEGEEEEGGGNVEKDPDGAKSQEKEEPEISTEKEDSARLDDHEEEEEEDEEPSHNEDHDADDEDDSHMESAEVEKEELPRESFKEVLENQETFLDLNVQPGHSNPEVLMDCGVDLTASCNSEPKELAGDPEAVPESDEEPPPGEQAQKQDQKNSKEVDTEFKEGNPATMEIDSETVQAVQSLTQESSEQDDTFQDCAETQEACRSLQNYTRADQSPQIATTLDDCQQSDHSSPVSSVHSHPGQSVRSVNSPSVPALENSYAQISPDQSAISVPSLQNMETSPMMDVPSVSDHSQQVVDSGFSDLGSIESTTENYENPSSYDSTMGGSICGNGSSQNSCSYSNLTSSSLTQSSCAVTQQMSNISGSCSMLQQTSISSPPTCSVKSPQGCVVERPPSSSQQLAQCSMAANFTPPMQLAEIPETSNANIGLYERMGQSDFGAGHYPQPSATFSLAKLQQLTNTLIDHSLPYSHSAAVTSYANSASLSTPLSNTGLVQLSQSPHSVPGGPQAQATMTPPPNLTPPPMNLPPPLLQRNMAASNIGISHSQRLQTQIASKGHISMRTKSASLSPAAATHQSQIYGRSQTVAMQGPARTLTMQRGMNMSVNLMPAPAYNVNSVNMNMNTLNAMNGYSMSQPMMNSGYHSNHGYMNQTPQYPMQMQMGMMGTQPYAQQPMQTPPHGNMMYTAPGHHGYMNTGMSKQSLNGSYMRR
Compound,"Result of the bacterial reverse gene mutation test Ames MPF Penta I, TA1535 ([1]; with addition of S9 mix)","Result of the bacterial reverse gene mutation test Ames MPF Penta I, TA1535 ([1]; without addition of S9 mix)",IC50 [2] [M],IC50 [3] [nM],"Result of the bacterial reverse gene mutation test Ames MPF Penta I, TA1537 ([4]; with addition of S9 mix)","Result of the bacterial reverse gene mutation test Ames MPF Penta I, TA1537 ([4]; without addition of S9 mix)","Result of the bacterial reverse gene mutation test Ames MPF Penta I, TA98 ([5]; with addition of S9 mix)","Result of the bacterial reverse gene mutation test Ames MPF Penta I, TA98 ([5]; without addition of S9 mix)",EC50 [6] [M],"Result of the bacterial reverse gene mutation test Ames MPF Penta I, E. coli wp2 ([7]; with addition of S9 mix)","Result of the bacterial reverse gene mutation test Ames MPF Penta I, E. coli wp2 ([7]; without addition of S9 mix)"
"CCOc1ccccc1S(=O)(=O)NC(=O)c1cc2ccc(C(C)C)cc2o1 [Example 55, N-(2-Ethoxybenzenesulfonyl)-6-(propan-2-yl)-1-benzofuran-2-carboxamide]",negative,negative,1.34e-06,538,negative,negative,negative,negative,> 2e-05,negative,negative
"O=C(NS(=O)(=O)c1ccccc1-c1ccccc1)c1cc2ccc(C3CC3)cc2o1 [Example 16, N-([1,1′-biphenyl]-2-sulfonyl)-6-cyclopropyl-1-benzofuran-2-carboxamide]",negative,negative,1.02e-06,104,negative,negative,negative,negative,1.14e-05,negative,negative
